Assay results as given in paper PMC11249646, “Small-Molecule Disruptors of the Interaction between Calcium- and Integrin-Binding Protein 1 and Integrin αIIbβ3 as Novel Antiplatelet Agents” (ACS Pharmacology & Translational Science, 2024).
Where two headings read alike, the source gives them in different places.

Key:
[1] = target: T1, CIB1 and αIIb interaction (GST-CIB1 : F-αIIb peptide) (Homo sapiens, UniProt Q99828); assay: FP assay, 384-well format (screen); type: binding; parameters: 384-well SCREEN Efficacy (%): concentration or dose not given beside the values; conditions: for 384-well SCREEN Efficacy (%) / 384-well SCREEN Confirm? / IC50: F-αIIb peptide; for 384-well SCREEN Confirm?: YES/NO; for IC50: read-out: 384-well SCREEN IC50
T1 construct: made in house; host or cells: BL-21 plus RIL cells (E. coli)
T1 sequence (Q99828 1-191): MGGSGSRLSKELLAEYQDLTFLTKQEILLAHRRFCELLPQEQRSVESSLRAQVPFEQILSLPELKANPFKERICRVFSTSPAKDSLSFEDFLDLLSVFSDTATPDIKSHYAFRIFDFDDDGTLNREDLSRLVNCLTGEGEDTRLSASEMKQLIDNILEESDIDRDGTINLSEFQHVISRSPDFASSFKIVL

[2] = target: T2, GST-CIB1 : F-scrambled peptide (Homo sapiens, UniProt Q99828); assay: FP scrambled-peptide counter screen, 384-well format; type: binding; conditions: F-scrambled peptide; for 384-well COUNTERSCREEN Confirm?: *: Curve in opposite direction; for IC50: read-out: 384-well COUNTERSCREEN IC50
T2 construct: made in house; host or cells: BL-21 plus RIL cells (E. coli)
T2 sequence (Q99828 1-191): T1 sequence (Q99828 1-191)

[3] = target: T3, CIB1 and αIIb interaction (CIB1-GST : F-αIIb peptide) (Homo sapiens, UniProt Q99828); assay: FP assay, 1536-well qHTS format (primary and confirmatory screen); type: binding; conditions: for CONFIRMATORY SCREEN Confirm?: YES/NO call; for CONFIRMATORY SCREEN Curve Class: qHTS curve class; for CONFIRMATORY SCREEN Curve Class / Curve Class: negative sign = inhibitory curve
T3 construct: made in house; host or cells: BL-21 plus RIL cells (E. coli)
T3 sequence (Q99828 1-191): T1 sequence (Q99828 1-191)

[4] = target: T2, GST-CIB1 : F-scrambled peptide; assay: FP scrambled-peptide counter screen, 1536-well format; type: binding; conditions: for COUNTERSCREEN Confirm?: YES/NO call; for COUNTERSCREEN Curve Class: qHTS curve class; for IC50: read-out: COUNTERSCREEN IC50
[5] = target: T4, GST-CIB1:F-αIIb interaction (Homo sapiens, UniProt Q99828); assay: Gel-based (in-gel) binding assay; conditions: 1 μM GST-CIB1, 400 nM F-αIIb; for Active in Gel Assay?: 60 μM, 1:2, 4-points
T4 construct: made in house; host or cells: BL-21 plus RIL cells (E. coli)
T4 sequence (Q99828 1-191): T1 sequence (Q99828 1-191)

[6] = target: T5, GST-CIB1 : F-αIIb peptide (Homo sapiens, UniProt Q99828); assay: FP assay in the presence of glutathione (GSH), thiol reactivity; type: binding; conditions: for GSH/CIB1 IC50 ratio: ratio of GSH (+) IC50 to GSH (-) IC50; for GSH Assay Result: thiol reactivity call: No change / Active
T5 construct: made in house; host or cells: BL-21 plus RIL cells (E. coli)
T5 sequence (Q99828 1-191): T1 sequence (Q99828 1-191)

[7] = confirmatory screen, negative = inhibition
[8] = confirmatory screen, read-out: CONFIRMATORY SCREEN IC50
[9] = scrambled-peptide counterscreen
[10] = FP assay in the presence of glutathione (GSH +), read-out: GSH (+) Assay IC50
[11] = FP assay without glutathione (GSH -), read-out: GSH (-) Assay IC50
[12] = with vs without 10 μM reduced GSH
[13] = qHTS FP screen hits, Table S2, negative = inhibition
[14] = qHTS FP screen hits, Table S2, one class per curve where COUNT > 1
[15] = concentrations tested 60, 30, 15, 7.5
[16] = qHTS primary screen hits, Table S2, negative = inhibition
[17] = qHTS primary screen hits, Table S2, several classes where COUNT > 1
[18] = qHTS primary screen hits, Table S2, read-out: IC50

Structure (SMILES) | 384-well SCREEN Efficacy (%) [1] [%] | 384-well SCREEN Confirm? [1] | IC50 [1] [µM] | 384-well COUNTERSCREEN Efficacy (%) [2] [%] | 384-well COUNTERSCREEN Confirm? [2] | IC50 [2] [µM] | CONFIRMATORY SCREEN Confirm? ([3]; confirmatory screen) | CONFIRMATORY SCREEN Curve Class ([3]; confirmatory screen) | CONFIRMATORY SCREEN Efficacy (%) [3, 7] [%] | IC50 [3, 8] [µM] | COUNTERSCREEN Efficacy (%) [4, 9] [%] | COUNTERSCREEN Confirm? [4, 9] | COUNTERSCREEN Curve Class [4, 9] | Active in Gel Assay? [5] | IC50 [6, 10] [µM] | IC50 [6, 11] [µM] | GSH/CIB1 IC50 ratio [6] | Efficacy (%) [3, 16] [%] | Curve Class [3, 17] | IC50 [3, 18] [µM] | also measured
CCN(CC)C(=S)SSC(=S)N(CC)CC [NCGC00016000-13, disulfiram, reference compound] | 95 | YES | 1.6 | 34 | YES | > 120 | YES | -1.2 | -72 | 14.1 | -13 | YES | 4 | YES | 27 | 3.2 | 8.5 | – | – | – | IC50 shift in the presence of GSH [6]: 8.5 fold
CN(C)C(=S)SSC(=S)N(C)C [NCGC00091563-02, thiram, reference compound] | 78 | YES | 2.8 | 44 | YES | > 120 | – | – | – | – | – | – | – | YES | 8.3 | 1 | 8.3 | – | – | – | IC50 shift in the presence of GSH [6, 12]: 8.3 fold
O=C1C(I)=CC(=C(c2cc(I)c([O-])c(I)c2)c2ccccc2C(=O)[O-])C=C1I.[Na+].[Na+] [NCGC00161636-02] | 78 | YES | 31.6 | 105 | YES | 14.1 | YES | -1.2 | -74 | 11.2 | 435 | YES | – | YES | 28.2 | 15.9 | – | – | – | – | IC50 ([3]; IC50 [μM], qHTS FP screen hits, Table S2): 17.8 µM; Efficacy (%) [3, 13]: -47%; Curve Class [3, 14]: -1.2; IC50 [4, 9]: 89.1 µM; Inhibited concentration in gel [5, 15]: 60 µM; GSH Assay Result [6]: No change
S=C(SSC(=S)N1CCCCC1)N1CCCCC1 [NCGC00181776-02, dipentamethylenethiuram disulfide] | 80 | YES | 6.3 | 38 | YES | > 120 | YES | -1.4 | -72 | 25.1 | 0 | YES | 4 | YES | – | – | – | -64 | -1.2 | 28.2 | Inhibited concentration in gel (µM) [5, 15]: 60,30 µM; shift in potency in the presence of GSH [6, 12]: right-shift in potency
CC(C)(C)c1ccc(SC2=NS(=O)(=O)c3ccccc32)cc1 [NCGC00189495-01] | 35 | YES | 8.9 | 25 | YES | > 120 | YES | -2.4 | -62 | 31.6 | 0 | YES | 4 | YES | > 120 | 6.2 | 28.3 | – | – | – | Efficacy (%) [3, 13]: -38%; Curve Class [3, 14]: -2.2; IC50 ([3]; qHTS FP screen hits, Table S2, read-out: IC50): 39.8 µM; Inhibited concentration in gel (µM) [5, 15]: 60,30 µM; shift in potency in the presence of GSH [6, 12]: right-shift in potency
O=c1[nH]sc2cc(Cl)ccc12 [NCGC00262908-01, ticlatone, reference compound] | 79 | YES | 0.562 | 95 | YES | > 120 | YES | -1.2 | -50 | 2.8 | 10 | YES | 4 | YES | 10.3 | 0.234 | 44.0 | -68 | – | 3.5 | Curve Class ([3]; qHTS primary screen hits, Table S2): -1.2; shift in potency in the presence of GSH [6, 12]: right-shift in potency
O=[N+]([O-])c1cnc(Sc2nnc(O)n2-c2ccc3c(c2)OCCO3)s1 [NCGC00263145-01] | 67 | YES | 2.2 | 89 | YES | 89.1 | YES | -1.4 | -64 | 11.2 | 15 | YES | 4 | YES | – | – | – | -40 | -2.2 | 21.5 | –
COc1cccc(-n2c(SCc3cc(=O)oc4cc(O)c(O)cc34)nc3ccccc3c2=O)c1.O=C(O)C(F)(F)F [NCGC00371345-01] | 73 | YES | 11.2 | 38 | Inconclusive | 7.1 | – | -1.1 | – | 14.1 | – | – | -2.4 | YES | 15.9 | 20 | 0.8 | -34 | -1.4 | 4.5 | Confirm and Selective? ([1]; selective toward αIIb: negative curve class and/or IC50 ratio of >3-fold and/or >2-fold efficacy vs scrambled peptide): Inconclusive; CONFIRMATORY SCREEN Efficacy (%) [3]: -90%; COUNTERSCREEN Efficacy (%) [4]: -35%; IC50 [4, 9]: 8.9 µM; GSH Assay Result [6]: No change
